Publication PMC12055592, “Post-symptomatic NLRP3 inhibition rescues cognitive impairment and mitigates amyloid and tau driven neurodegeneration” (Npj Dementia, 2025)

Columns and labels:
NLRP1 = NLRP1 in vitro selectivity assay (Normal Human Epidermal Keratinocytes, Val-boroPro, IL-1β); assay type: cell-based; settings: n = 2; top concentration 50 µM
Method: Normal Human Epidermal Keratinocytes pooled from juvenile donors (PromoCell, Heidelberg, Germany) were cultured in Keratinocyte Growth Medium 2 (PromoCell). Cells were seeded at 12,000 cells/well in a 96-well cell culture plate and incubated for 16 h at 37 °C with 5% CO2. The next day, the media was replaced with fresh media, and cells were pre-incubated for 60 min with VEN-02XX (top concentration 50 µM; 5-fold titration) before the addition of Val-boroPro mesylate (MedChemExpress, Monmouth Junction, NJ) at a final concentration of 7.5 µM. After a 30-h incubation at 37 °C with 5% CO2, supernatants were collected and IL-1β levels were determined in an electrochemiluminescence immunoassay (Mesoscale Discovery).

[1] = tested on: NLRP3 inflammasome, IL-1β release in mouse whole blood; assay: Mouse whole-blood in vitro assay (LPS, ATP, secreted IL-1β); assay type: cell-based
Method: Blood was collected from CD1 female mice in lithium-Heparin tubes (Sarstedt, Numbrecht, Germany). Freshly collected blood was distributed in each well of a 96-well round-bottom cell culture plate (Corning Life Sciences, Tewksbury, MA). Blood was primed with 1 µg/ml Lipopolysaccharide (LPS) (E. coli O26:B6, Millipore, Burlington, MA) for 4.5 h, incubated at 37 °C with 5% CO2. Following LPS priming, blood was incubated with VEN-02XX pre-diluted in HBSS (Thermo Fisher Scientific, Waltham, MA) with 2% DMSO, for 30 min (top concentration 25 µM; 3-fold titration). Following drug incubation, blood was stimulated with 5 mM ATP (Millipore) for an additional 30 min at 37 °C with 5% CO2 under continuous shaking (450 RPM), after which conditioned media was collected for analysis of secreted IL-1β in an electrochemiluminescence immunoassay (Mesoscale Discovery).

5XFAD/Rubicon KO mice [2] = assay: Plasma neurofilament light chain (NfL) ELISA in 5XFAD/Rubicon KO mice; assay type: in vivo, mouse; settings: 20 mg/kg, 9 weeks PO QD; lack of a dose-response
Method: (§1) 5XFAD/Rubicon KO mice received vehicle (0.5% w/v methylcellulose/0.1% w/v Tween® 80 in water) or VEN-02XX (0.01, 1, or 20 mg/kg) every day by oral gastric gavage for 9 weeks.
Blood was collected via submandibular puncture. Briefly, mice were immobilized, and a small puncture was made in the submandibular vein using a sterile 28 g lancet. Blood was collected using a capillary tube coated in 0.5 M EDTA into separation tubes for plasma as indicated. Blood was subsequently centrifuged for 15 min at 13,000 rpm in a refrigerated centrifuge. Plasma was harvested as indicated and was either used immediately or stored at −80 °C until use.
Brain tissue was homogenized in PBS, pH 7.4 with 1X Halt™ protease inhibitor cocktail (Thermo Fisher Scientific, Waltham, MA) using a Bead Ruptor homogenizer (Omni International, Kennesaw, GA). Homogenates were clarified by centrifugation at 10,000 × g for 10 min. The crude homogenate was used for quantification of VEN-02XX levels, as described below. Total protein concentrations were quantified from clarified supernatants in a Pierce BCA protein assay (Thermo Fisher Scientific). Cytokine and chemokine levels were quantified using an electrochemiluminescence immunoassay (ECLIA) for IL-1β (total), TNFα, IL-6 and IP-10 (U-PLEX Custom Biomarker Group 1 (mouse) assay, Meso Scale Discovery, Rockville, MD) following the manufacturer’s instructions. […]

NLRC4 = NLRC4 in vitro selectivity assay (THP1-Null2 cells, Needle-Tox, IL-1β); assay type: cell-based; settings: n = 2; top concentration 50 µM
5XFAD/Rubicon KO mice [3] = assay: Brain immunohistochemistry (Iba1, Aβ, pTau S396, NeuN) in 5XFAD/Rubicon KO mice; assay type: in vivo, mouse; settings: 9 weeks PO QD
Method: as §1
Following post-mortem collection, the brain was placed in a mouse brain matrix and sliced along the sagittal suture to separate the hemispheres. The left hemisphere was immediately processed for downstream biochemical analyses by snap freezing in liquid nitrogen. The right half was drop-fixed in 4% PFA in PBS for 24 h and then washed 5x in fresh PBS before being submerged in 30% sucrose cryoprotectant solution for 24 h. After 24 h, brains were frozen in cryomolds in a 2:1 mixture of 30% sucrose and optimal cutting temperature compound (OCT), cryomolds were stored at −80 °C until use. For slide preparation, brains were allowed to acclimatize to −20 °C in a Thermo Shandon cryotome. After equilibration at −20 °C, tissue was cryostat sectioned at 25 μm (cortex) or 40 μm (free floating sections for hippocampus). Steam-mediated antigen retrieval was performed using 1x citrate buffer. Sections were rinsed in PBS, blocked in 3% bovine serum albumin/0.2% Triton X-100/PBS for 1 h, and incubated with primary antibodies in blocking buffer overnight at 4 °C (1:200 goat anti-Iba1 [Novus Biologicals, Centennial, CO], 1:500 mouse anti-Aβ 82E1 MOAB [Immuno-Biological Laboratories, Inc., Spring Lake Park, MN], 1:200 rabbit anti-pTau S396 [Cell Signaling, Danvers, MA], 1:200 mouse anti-NeuN [Cell Signaling]). Sections were incubated with appropriate secondary antibodies (Jackson ImmunoResearch, West Grove, PA) for 1 h at room temperature. For the complete list of antibodies please reference Supplementary Table 2. ProLong™ Diamond or ProLong™ Gold Antifade Mountant with or without 4’,6-diamidino-2-phenylindole (DAPI) counterstain (Thermo Fisher Scientific, Waltham, MA). Slides were imaged on a Zeiss Axio-observer A1 inverted microscope with an Andor iXon EMCCD camera and X-Cite LED fluorescence unit. Image analysis was performed using Fiji and 3DMorph AnalyzeSkeleton for microglial analyses.

CC(C)(O)CNc1nnc(-c2ccc(Cl)cc2C(F)(F)F)c2ccncc12 [VEN-02XX]
block of IL-1β release downstream of NLRP1 (NLRP1): inability to block IL-1β release
IC50 ([1]; Mus musculus, IL-1β, geometric mean, n = 3): 440 nM
potency of NLRP3 inhibition in whole blood ([1]; in words): sub-micromolar potency
plasma NfL levels (5XFAD/Rubicon KO mice [2]): significantly reduced
block of IL-1β release downstream of NLRC4 (NLRC4): inability to block IL-1β release
microglial branch length (5XFAD/Rubicon KO mice [3]; 20 mg/kg, 3DMorph): significant increases in microglial branch length
pTau S396 signal (5XFAD/Rubicon KO mice [3]; 20 mg/kg, cortex and CA3 region of hippocampus): almost complete suppression in pTau signal
microglia/plaque association (co-localization of Iba1 with amyloid) (5XFAD/Rubicon KO mice [3]): robust disassociation of the microglia from the Aβ plaques
microglial soma volume (5XFAD/Rubicon KO mice [3]; 3DMorph): commensurate decreases in soma volume in a dose-dependent and statistically significant manner
gross microglial morphology (5XFAD/Rubicon KO mice [3]; Iba1 staining): transition from the disease-associated active ameboid morphology towards a homeostatic ramified morphology
CA3 and dentate gyrus thickness (5XFAD/Rubicon KO mice [3]; NeuN stained sections): significantly increased both CA3 and dentate gyrus (DG) thickness
phosphorylated tau (pTau S396) mean area (5XFAD/Rubicon KO mice [3]; cortex and CA3 region of hippocampus): dose-dependent and statistically significant reduction in phosphorylated tau
Iba1 mean area (microglial activation) (5XFAD/Rubicon KO mice [3]; cortex and hippocampus): reduced the cumulative signal of the key microglial activation marker, Iba1, in both the cortex and hippocampus in a dose-dependent and statistically significant manner
NeuN+ cell count (neuronal numbers) (5XFAD/Rubicon KO mice [3]; cortex and hippocampus): robust dose-dependent and statistically significant neuroprotective effect
Aβ plaque area/size (5XFAD/Rubicon KO mice [3]; cortex and hippocampus, especially at higher doses): significant reduction in Aβ plaque area/size in both the cortex and hippocampus in a dose-dependent manner
Aβ plaque burden (cumulative plaque #) (5XFAD/Rubicon KO mice [3]; cortex and hippocampus, did not reach statistical significance): trending reduction in Aβ plaque burden
